# Test results reported in patent publication EP2062893A1, “Fused imidazoles for cancer treatment” (Bayer Schering Pharma AG, priority 2007, dated 2009).
# pIC50: −log10 of the molar value.
# How the values were obtained:
# Assay type in all cases: cell-based
# [1] = system: phosphorylated Akt protein; test: Cellular PI3K / Akt pathway assay (phospho-Akt Ser473 sandwich ELISA); conditions: Homo sapiens; MCF7 cells, ß-Heregulin (20ng/ml) stimulation, 48h incubation
# Outline: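 MCF7 cells, serum-starved in 0.1% charcoal-treated FCS medium, were treated with compound alongside 20 ng/ml ß-heregulin stimulation (0.5% DMSO controls). Lysates analysed by phospho-Akt1 Ser473 sandwich ELISA (overnight capture at 4°C, Akt1 detection antibody, HRP/TMB), absorbance at 450 nm.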
# phosphorylated GSK3 = test: Cellular pGSK3 assay (phospho-GSK3 Ser9 sandwich ELISA); conditions: Homo sapiens; MCF7 cells, 48h incubation, IC50 of pGSK3 inhibition
# Outline: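 MCF7 cells treated 48 h at 37 °C with compound dilutions from 10 mM DMSO stocks, then lysed. Phospho-GSK3 Ser9 captured in sandwich ELISA, detected with HRP secondary and TMB, absorbance 450 nm; IC50 of pGSK3 inhibition calculated.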
# OvCAR3 cells = test: Cellular proliferation / Cytotoxicity assay (Alamar Blue / Resazurin cell viability); conditions: Homo sapiens, OVCAR-3, 48h incubation, read-out: Anti-proliferative / Cytotoxic activity (OvCAR3 cells)
# Experimental: Wells containing untreated control cells were filled with 200 µl DMEM (Dulbecco's Modified Eagle Medium) containing 0.5vol% v:v DMSO. The cells are then incubated with the substances for 48h at 37°C in a humidified atmosphere containing 5vol% CO2. To determine the viability of the cells, 20 µl of a Resazurin solution (90mg / I) are added. […] Viabilities are expressed as % values.
pIC50 [1],pIC50 (phosphorylated GSK3),SMILES,pIC50 (OvCAR3 cells)
5.00 to 6.00,< 5.00,"N=C(N)c1cccn2c(-c3ccccc3)c(-c3ccc(CN4CCC(c5n[nH]c(-c6ccccn6)n5)CC4)cc3)nc12 [Example 33, 3-phenyl-2-(4-{[4-(5-pyridin-2-yl-1,2,4-triazol-3-yl)piperidin-1-yl]methyl}phenyl)imidazo[1,2-a]pyridine-8-carboximidamide]",< 5.00
> 6.00,5.00 to 6.00,"c1ccc(-c2c(-c3ccc(CN4CCC(c5n[nH]c(-c6ccccn6)n5)CC4)cc3)nc3cnccn23)cc1 [Example 37, 3-phenyl-2-(4-{[4-(5-pyridin-2-yl-1,2,4-triazol-3-yl)piperidin-1-yl]methyl}phenyl)imidazo[1,2-a]pyrazine]",> 5.00
> 6.00,> 6.00,"NC(=O)c1ccn2c(-c3ccccc3)c(-c3ccc(CN4CCC(c5n[nH]c(-c6ccccn6)n5)CC4)cc3)nc2c1 [Example 38, 3-phenyl-2-(4-{[4-(5-pyridin-2-yl-1,2,4-triazol-3-yl)piperidin-1-yl]methyl}phenyl)imidazo[1,2-a]pyridine-7-carboxamide]",> 5.00

# The next lines start with the compound.
SMILES,pIC50 [1],pIC50 (phosphorylated GSK3),pIC50 (OvCAR3 cells)
"COc1ccc2nc(-c3ccc(CN4CCC(c5n[nH]c(-c6ccccn6)n5)CC4)cc3)c(-c3ccccc3)n2n1 [Example 32, 6-methoxy-3-phenyl-2-(4-{[4-(5-pyridin-2-yl-1,2,4-triazol-3-yl)piperidin-1-yl]methyl}phenyl)imidazo[1,2-b]pyridazine]",> 6.00,5.00 to 6.00,> 5.00
"c1ccc(-c2nc(C3CCN(Cc4ccc(-c5nc6ncccn6c5-c5ccsc5)cc4)CC3)n[nH]2)nc1 [Example 34, 2-(4-{[4-(5-pyridin-2-yl-1,2,4-triazol-3-yl)piperidin-1-yl]methyl}phenyl)-3-(3-thienyl)imidazo[1,2-a]pyrimidine]",> 6.00,> 6.00,> 5.00
"c1ccc(-c2nc(C3CCN(Cc4ccc(-c5nc6ncccn6c5-c5nccs5)cc4)CC3)n[nH]2)nc1 [Example 39, 2-(4-{[4-(5-pyridin-2-yl-1,2,4-triazol-3-yl)piperidin-1-yl]methyl}phenyl)-3-(1,3-thiazol-2-yl)imidazo[1,2-a]pyrimidine]",> 6.00,5.00 to 6.00,> 5.00
